Measurements published in patent US20030181515A1, “Methods of using kavalactone compositions” (Kava Pharmaceuticals, Inc., a Delaware corporation, priority 2001, published 2003).
Entries after “also recorded” stand apart in the source; their conditions may differ.

Test system: IL-12
Test: IL-12 inhibitory assay in IFNγ-primed, LPS-stimulated human PBMC (ELISA)
Assay type: cell-based
Conditions: human PBMC primed with IFNγ, supernatants 20 h later, FIG. 1
Protocol: This invention is based in part on the unexpected discovery that specific kavalactones inhibit production of IL-12, whose overproduction is implicated in a number of diseases and disease symptoms. The IL-12 inhibitory activity of six major kavalactones (e.g., desmethoxyyangonin, dihydrokawain, dihydromethysticin, kawain, methysticin, and yangonin) was measured using a cellular assay for determination of IL-12 cytokine inhibition. […] Thus, compositions containing one of the three active kavalactones, kawain, dihydrokawain, dihydromethysticin, or a combination thereof, are useful for treating disease or disease symptoms related to IL-12 overproduction.
Referring back to FIG. 1, six kavalactones were tested in an IL-12 inhibitory assay as follows: Lipopolysaccharide (LPS, Serratia marscencens) was obtained from Sigma (St. Louis, Mo.). Human recombinant IFNg was purchased from Boehringer Mannheim. (Mannheim, Germany). Human peripheral blood mononuclear cells were isolated by centrifugation using Ficall-Paque (Pharmacia Biotech, Uppsala, Sweden) and prepared in RPMI medium supplemented with 10% FCS and antibiotics in a 96-well plate with 1×10^6 cells/well. Human PBMC were primed with IFNγ (30 U/mL) for 16 h and then stimulated with […] of LPS in the presence of different concentrations of test compound. Cell-free supernatants were taken 20 h later for measurement of cytokines. Cell viability was assessed using the bioreduction of MTS [3-(4,5-dimethylthiazol-2-yl)-5-(3-carboxymethoxyphenyl)-2-(4-sulfophenyl)-2H-tetrazolium] (Promega, Madison, Wis.). Cell survival was estimated as the ratio of the absorbance in compound-treated groups versus compound-free control. Human IL-12 was assayed using ELISA kits (Endogen, Cambridge, Mass.), essentially according to the manufacturer's instructions. IL-12 inhibition can also be measured by other methods (e.g., in vivo, in vitro, animal models) of assaying for enzyme inhibition activity.

## COC1=CC(=O)O[C@@H](/C=C/c2ccccc2)C1 [kawain]
  IL-12 inhibitory activity: much higher IL-12 inhibitory activity relative to the other kavalactones; also recorded: exhibit IL-12 inhibitory activity

## COC1=CC(=O)O[C@@H](CCc2ccc3c(c2)OCO3)C1 [dihydromethysticin]
  IL-12 inhibitory activity: much higher IL-12 inhibitory activity relative to the other kavalactones; also recorded: exhibit IL-12 inhibitory activity

## COC1=CC(=O)O[C@@H](CCc2ccccc2)C1 [dihydrokawain]
  IL-12 inhibitory activity: much higher IL-12 inhibitory activity relative to the other kavalactones; also recorded: exhibit IL-12 inhibitory activity
